From ChEMBL document CHEMBL1140628, “Assessing potency of c-Jun N-terminal kinase 3 (JNK3) inhibitors using 2D molecular descriptors and binary QSAR methodology” (Bioorg Med Chem, 2007) come the findings set out here.

pIC50: −log10 of the molar value.

For this assay, the target named is Mitogen-activated protein kinase 10 (Homo sapiens, UniProt P53779). Put plainly: Inhibition of JNK3.
Chain of Mitogen-activated protein kinase 10 (P53779 whole entry): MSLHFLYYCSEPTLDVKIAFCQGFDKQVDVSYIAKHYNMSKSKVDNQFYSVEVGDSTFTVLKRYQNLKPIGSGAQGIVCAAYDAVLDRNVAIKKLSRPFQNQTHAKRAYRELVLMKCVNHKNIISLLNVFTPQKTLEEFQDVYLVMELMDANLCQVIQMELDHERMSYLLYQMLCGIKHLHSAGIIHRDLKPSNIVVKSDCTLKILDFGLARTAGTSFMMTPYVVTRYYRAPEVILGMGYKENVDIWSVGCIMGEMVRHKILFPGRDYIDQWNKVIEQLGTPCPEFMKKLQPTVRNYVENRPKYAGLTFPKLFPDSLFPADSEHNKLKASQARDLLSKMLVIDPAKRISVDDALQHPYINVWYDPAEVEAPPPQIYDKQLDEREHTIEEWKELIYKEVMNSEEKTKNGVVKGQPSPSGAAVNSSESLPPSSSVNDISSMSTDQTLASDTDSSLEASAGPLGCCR

Molecule `CCCn1c(C2CCN(C)CC2)nc(-c2ccc(Cl)c(Cl)c2)c1-c1ccnc(NC2CC2)n1` showed a pIC50 of 8.80.

The molecule `NC1=CC=C2SN=C3c4ccccc4C(=O)C1C23` (stereo not given) had a pIC50 of 6.40.

The molecule `N#C/C(=C1/Nc2ccccc2S1)c1ccnc(NCCc2ccc(S(N)(=O)=O)cc2)n1` had a pIC50 of 7.39.

Molecule `COc1ccc(CCNc2nccc(/C(C#N)=C3\Nc4ccccc4S3)n2)cc1` gave a negative-log IC50 (pIC50) of 8.51.

`Oc1c2ccccc2c2c3c(cccc13)N=N2` [SP-600125] had a pIC50 of 6.72.
